The test system of one assay is sodium channels. Conditions: 25 nM [^3 H]batrachotoxin, rat cortex vesicular preparation, 60 min, 25° C., pH 7.4; read-out: IC50, Inhibition of [^3 H]Batrachotoxin Binding.
The test system of a further assay is mice. Put plainly: Supramaximal electroshock in mice (block of tonic seizure). The format is in vivo, mouse (male CD-1). Conditions: intraperitoneal, male CD-1 mice. Here is the method: This procedure is used as to predict anticonvulsant activity of a test compound in vivo by its ability to block a full tonic seizure induced by a supramaximal electroshock stimulation as an indication of efficacy in preventing grand mal seizures. Male CD-1 mice (Charles River) weighing 18-30 grams were housed in accordance with the "NIH Guide to Care and Use of Laboratory Animals" (National Institutes of Health Care Publication 85-23, revised 1985) with a 12 hour light/dark cycle and free access to food and water. On the day of testing, animals are brought to the laboratory and randomly assigned to groups of six for the time course experiments and to test groups of ten for the dose-response experiments. The apparatus used for the test was the Wahlquist Electroshock Stimulator (Model H), which has a power source of 120 volts ac. A current of 15.5 mA lasting for 300 msec was delivered by placing the terminals of the stimulator across the eyes of the animal. This stimulus results in a tonic seizure, defined as a brief period of hindlimb flexion followed by a prolonged period of hindlimb extension. […] Protection is calculated as a normalized percent inhibition relative to a vehicle treated control group. A time course is performed to determine the peak time of drug action and then a dose response performed at the peak time to determine drug potency. Mice are dosed in a randomized fashion using a total of 4 dose groups and one vehicle control group. The ED50 value and 95% confidence limits are calculated by a computerized Litchfield and Wilcoxon analysis. Drugs are prepared dissolved in distilled water and, if insoluble a drop of surfactant is added. Drugs are routinely administered intraperitoneally for this test and given in a dosage volume of 10 ml/kg.

In a further assay the test system is membrane sodium channels. Conditions: Willow and Catterall, 1982; Olsen, 1986; cited from earlier work.

pIC50: −log10 of the molar value.

For orientation: pIC50 means −log10 of the IC50, conventionally taken in molar units. One may read the ED50 as the midpoint of the dose-response relation.

With `CCCN(c1ccncc1F)n1cc(C)c2cc(O)ccc21` [1-[(3-Fluoro-4-pyridinyl)propylamino]-3-methyl-1H-indol-5-ol], the negative-log IC50 (pIC50) with sodium channels is 4.72.
Take `CCCN(c1ccncc1)n1cc(C)c2ccccc21.O=C(O)/C=C\C(=O)O` [3-Methyl-N-propyl-N-(4-pyridinyl)-1H-indol-1-amine maleate]: the ED50 with mice (Mus musculus, ip, at peak time of drug action, read-out: ED50, inhibition of supramaximal electroshock) was determined as 14.4 mg/kg.
For `NC(=O)N1c2ccccc2C=Cc2ccccc21` [Carbamazepine], the “allosteric inhibition of [^3 H]batrachotoxin binding” value in the assay with membrane sodium channels was “allosterically inhibit the binding of [^3 H]batrachotoxin to membrane sodium channels”.
In the case of `CCCN(c1ccncc1F)n1cc(C)c2ccccc21.Cl` [N-(3-Fluoro-4-pyridinyl)-N-propyl-3-methyl-1H-indol-1-amine hydrochloride], the “percent inhibition (protection), supramaximal electroshock” value in the assay on mice (30 mpk) and in the assay with mice (60 mpk) was 50% in each case.
